Laboratory results taken from patent US5464836A, “Benzophenones having an antifungal activity” (Ministero dell'Universita` e della Ricerca Scientifica e …, priority 1991, dated 1995).

System: Helminthosporium teres
Assay: preventive fungicidal activity on Helminthosporium teres (barley leaves)
Type: in vivo
Conditions: barley leaves cv. Arna, 12 days, scale 100 (healthy plant) to 0 (completely infected plant)
Protocol: Determination of the preventive fungicidal activity on Helminthosporium teres. Barley leaves cv. Arna, cultivated in a vase in a conditioned environment, were treated by spraying both sides with the products being tested (compounds 1 and 2) in a 20% hydroacetonic solution of acetone (vol./vol.). After remaining 2 days in the conditioned environment at 20° C. and 70% R.H., the plants were sprayed on both sides of the leaves with an aqueous suspension of Helminthosporium teres (250.000 conidii per cc.). After 24 hours in a humidity saturated atmosphere, at 21° C., the plants were kept in a conditioned environment for the incubation of the fungus. At the end of this period (12 days), the gravity of infection was estimated by observation, with a scale of indexes ranging from 100 (healthy plant) to 0 (completely infected plant).

Compound | % Control Helminthosporium (dosage 125 ppm) | % Control Helminthosporium (dosage 500 ppm)
CC(Cc1cccc(C(=O)c2ccccc2)c1)CN1C[C@@H](C)O[C@@H](C)C1 (stereo partly shown) [Compound 1, 4-[3-(3-benzoylphenyl)-2-methylpropyl]-2,6-dimethylmorpholine] | 100% | 100%
CC(Cc1cccc(C(=O)c2ccc(Cl)cc2)c1)CN1C[C@@H](C)O[C@@H](C)C1 (stereo partly shown) [Compound 2, 4-[3-(3-(4-chlorobenzoyl)phenyl)-2-methylpropyl]-2,6-dimethylmorpholine] | 100% | 100%
